Test results taken from the supplement of paper PMC6045584.
± gives the standard deviation of the averaged measurements.

Experiments:
[1] = compound: CCC1=C[C@@H]2CN(C1)Cc1c([nH]c3ccccc13)[C@@](C(=O)OC)(c1cc3c(cc1OC)N(C)[C@H]1[C@@](O)(C(=O)OC)[C@H](OC(C)=O)[C@]4(CC)C=CCN5CC[C@]31[C@@H]54)C2 [VINORELBINE]; experiment: surviving fraction relative to DMSO-only wells; higher = less growth inhibition; settings: exposure time: 5 days
In short: (§1)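 Viability values are CellTiter-Glo luminescence readings, given as surviving fraction against the median of DMSO-only wells. The readings were taken after 10 minutes at room temperature, following five days of continuous exposure to inhibitors at 0.5, 1, 5, 10, 50, 100, 500 and 1000 nM that began 24 hours after log-phase tumour cell lines were seeded at 250–500 cells per well in 384-well plates. Every line was screened three times and kept only if replicate Pearson r >0.7 and median Z' >0.3.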

[2] = compound: CN(Cc1cnc2nc(N)nc(N)c2n1)c1ccc(C(=O)N[C@@H](CCC(=O)O)C(=O)O)cc1 [METHOTREXATE]; experiment: as above; settings: exposure time: 5 days
In short: as §1

## 22RV1 PROSTATE
[1]; 0.5 nM
  surviving fraction: 1.04 ± 0.039
[1]; 1 nM
  surviving fraction: 1.01 ± 0.057
[1]; 5 nM
  surviving fraction: 0.916 ± 0.13
[1]; 10 nM
  surviving fraction: 0.655 ± 0.12
[1]; 50 nM
  surviving fraction: 0.12 ± 0.028
[1]; 100 nM
  surviving fraction: 0.0623 ± 0.0038
[1]; 500 nM
  surviving fraction: 0.0587 ± 0.012
[1]; 1000 nM
  surviving fraction: 0.06367 ± 0.00058
[2]; 0.5 nM
  surviving fraction: 1.06 ± 0.075
[2]; 1 nM
  surviving fraction: 0.984 ± 0.11
[2]; 5 nM
  surviving fraction: 0.946 ± 0.15
[2]; 10 nM
  surviving fraction: 0.964 ± 0.12
[2]; 50 nM
  surviving fraction: 0.452 ± 0.016
[2]; 100 nM
  surviving fraction: 0.325 ± 0.013
[2]; 500 nM
  surviving fraction: 0.285 ± 0.097
[2]; 1000 nM
  surviving fraction: 0.279 ± 0.099

## 93VU HEADNECK
[1]; 0.5 nM
  surviving fraction: 1.02 ± 0.11
[1]; 1 nM
  surviving fraction: 1.02 ± 0.19
[1]; 5 nM
  surviving fraction: 1.04 ± 0.034
[1]; 10 nM
  surviving fraction: 1.05 ± 0.075
[1]; 50 nM
  surviving fraction: 0.554 ± 0.011
[1]; 100 nM
  surviving fraction: 0.292 ± 0.03
[1]; 500 nM
  surviving fraction: 0.141 ± 0.015
[1]; 1000 nM
  surviving fraction: 0.145 ± 0.022
[2]; 0.5 nM
  surviving fraction: 1.03 ± 0.099
[2]; 1 nM
  surviving fraction: 1.08 ± 0.091
[2]; 5 nM
  surviving fraction: 1.16 ± 0.11
[2]; 10 nM
  surviving fraction: 1.18 ± 0.063
[2]; 50 nM
  surviving fraction: 0.854 ± 0.081
[2]; 100 nM
  surviving fraction: 1.02 ± 0.051
[2]; 500 nM
  surviving fraction: 0.702 ± 0.049
[2]; 1000 nM
  surviving fraction: 0.671 ± 0.018

## 143B BONE
[1]; 0.5 nM
  surviving fraction: 1 ± 0.02
[1]; 1 nM
  surviving fraction: 1.016 ± 0.0057
[1]; 5 nM
  surviving fraction: 1.016 ± 0.0071
[1]; 10 nM
  surviving fraction: 0.864 ± 0.024
[1]; 50 nM
  surviving fraction: 0.229 ± 0.0071
[1]; 100 nM
  surviving fraction: 0.1625 ± 0.00071
[1]; 500 nM
  surviving fraction: 0.039 ± 0.0028
[1]; 1000 nM
  surviving fraction: 0.0345 ± 0.00071
[2]; 0.5 nM
  surviving fraction: 1.06 ± 0.018
[2]; 1 nM
  surviving fraction: 1.04 ± 0.016
[2]; 5 nM
  surviving fraction: 1.03 ± 0.041
[2]; 10 nM
  surviving fraction: 0.471 ± 0.022
[2]; 50 nM
  surviving fraction: 0.379 ± 0.033
[2]; 100 nM
  surviving fraction: 0.174 ± 0.014
[2]; 500 nM
  surviving fraction: 0.085 ± 0.0071
[2]; 1000 nM
  surviving fraction: 0.0875 ± 0.016

## A549 LUNG
[1]; 0.5 nM
  surviving fraction: 0.982 ± 0.049
[1]; 1 nM
  surviving fraction: 0.989 ± 0.049
[1]; 5 nM
  surviving fraction: 0.979 ± 0.053
[1]; 10 nM
  surviving fraction: 0.968 ± 0.045
[1]; 50 nM
  surviving fraction: 0.461 ± 0.034
[1]; 100 nM
  surviving fraction: 0.308 ± 0.023
[1]; 500 nM
  surviving fraction: 0.228 ± 0.0085
[1]; 1000 nM
  surviving fraction: 0.274 ± 0.015
[2]; 0.5 nM
  surviving fraction: 1.06 ± 0.07
[2]; 1 nM
  surviving fraction: 1.06 ± 0.043
[2]; 5 nM
  surviving fraction: 1.04 ± 0.023
[2]; 10 nM
  surviving fraction: 1.06 ± 0.036
[2]; 50 nM
  surviving fraction: 0.237 ± 0.0061
[2]; 100 nM
  surviving fraction: 0.219 ± 0.0071
[2]; 500 nM
  surviving fraction: 0.213 ± 0.0055
[2]; 1000 nM
  surviving fraction: 0.218 ± 0.0055

## ASKA SYNOVIAL
[1]; 0.5 nM
  surviving fraction: 0.912 ± 0.086
[1]; 1 nM
  surviving fraction: 0.846 ± 0.075
[1]; 5 nM
  surviving fraction: 0.43 ± 0.029
[1]; 10 nM
  surviving fraction: 0.306 ± 0.015
[1]; 50 nM
  surviving fraction: 0.247 ± 0.026
[1]; 100 nM
  surviving fraction: 0.229 ± 0.02
[1]; 500 nM
  surviving fraction: 0.257 ± 0.03
[1]; 1000 nM
  surviving fraction: 0.334 ± 0.022
[2]; 0.5 nM
  surviving fraction: 1.13 ± 0.14
[2]; 1 nM
  surviving fraction: 1.07 ± 0.067
[2]; 5 nM
  surviving fraction: 1.13 ± 0.048
[2]; 10 nM
  surviving fraction: 1.08 ± 0.083
[2]; 50 nM
  surviving fraction: 1.23 ± 0.094
[2]; 100 nM
  surviving fraction: 1.18 ± 0.087
[2]; 500 nM
  surviving fraction: 1.19 ± 0.086
[2]; 1000 nM
  surviving fraction: 1.12 ± 0.09

## BT20 BREAST
[1]; 0.5 nM
  surviving fraction: 1.16 ± 0.21
[1]; 1 nM
  surviving fraction: 0.875 ± 0.22
[1]; 5 nM
  surviving fraction: 0.973 ± 0.076
[1]; 10 nM
  surviving fraction: 0.709 ± 0.18
[1]; 50 nM
  surviving fraction: 0.0683 ± 0.025
[1]; 100 nM
  surviving fraction: 0.055 ± 0.019
[1]; 500 nM
  surviving fraction: 0.106 ± 0.029
[1]; 1000 nM
  surviving fraction: 0.09 ± 0.03
[2]; 0.5 nM
  surviving fraction: 1.16 ± 0.083
[2]; 1 nM
  surviving fraction: 1.15 ± 0.095
[2]; 5 nM
  surviving fraction: 1.12 ± 0.075
[2]; 10 nM
  surviving fraction: 1.1 ± 0.087
[2]; 50 nM
  surviving fraction: 0.992 ± 0.1
[2]; 100 nM
  surviving fraction: 0.995 ± 0.089
[2]; 500 nM
  surviving fraction: 0.998 ± 0.021
[2]; 1000 nM
  surviving fraction: 0.989 ± 0.1

## BT549 BREAST
[1]; 0.5 nM
  surviving fraction: 1.13 ± 0.039
[1]; 1 nM
  surviving fraction: 1.21 ± 0.15
[1]; 5 nM
  surviving fraction: 0.934 ± 0.12
[1]; 10 nM
  surviving fraction: 0.618 ± 0.099
[1]; 50 nM
  surviving fraction: 0.146 ± 0.037
[1]; 100 nM
  surviving fraction: 0.132 ± 0.023
[1]; 500 nM
  surviving fraction: 0.154 ± 0.043
[1]; 1000 nM
  surviving fraction: 0.158 ± 0.018
[2]; 0.5 nM
  surviving fraction: 1.11 ± 0.16
[2]; 1 nM
  surviving fraction: 1.04 ± 0.034
[2]; 5 nM
  surviving fraction: 1 ± 0.063
[2]; 10 nM
  surviving fraction: 1.03 ± 0.11
[2]; 50 nM
  surviving fraction: 0.107 ± 0.012
[2]; 100 nM
  surviving fraction: 0.044 ± 0.0053
[2]; 500 nM
  surviving fraction: 0.0323 ± 0.0055
[2]; 1000 nM
  surviving fraction: 0.039 ± 0.011

## CADOES1 SOFT TISSUE
[1]; 0.5 nM
  surviving fraction: 0.972 ± 0.19
[1]; 1 nM
  surviving fraction: 0.882 ± 0.043
[1]; 5 nM
  surviving fraction: 0.928 ± 0.12
[1]; 10 nM
  surviving fraction: 0.84 ± 0.073
[1]; 50 nM
  surviving fraction: 0.877 ± 0.12
[1]; 100 nM
  surviving fraction: 0.825 ± 0.038
[1]; 500 nM
  surviving fraction: 0.201 ± 0.013
[1]; 1000 nM
  surviving fraction: 0.0913 ± 0.0064
[2]; 0.5 nM
  surviving fraction: 0.973 ± 0.11
[2]; 1 nM
  surviving fraction: 1.02 ± 0.14
[2]; 5 nM
  surviving fraction: 0.869 ± 0.052
[2]; 10 nM
  surviving fraction: 0.672 ± 0.12
[2]; 50 nM
  surviving fraction: 0.288 ± 0.013
[2]; 100 nM
  surviving fraction: 0.229 ± 0.0093
[2]; 500 nM
  surviving fraction: 0.226 ± 0.021
[2]; 1000 nM
  surviving fraction: 0.242 ± 0.011

## CAL51 BREAST
[1]; 0.5 nM
  surviving fraction: 0.926 ± 0.047
[1]; 1 nM
  surviving fraction: 0.945 ± 0.016
[1]; 5 nM
  surviving fraction: 0.736 ± 0.035
[1]; 10 nM
  surviving fraction: 0.452 ± 0.011
[1]; 50 nM
  surviving fraction: 0.0567 ± 0.0027
[1]; 100 nM
  surviving fraction: 0.045 ± 0.0027
[1]; 500 nM
  surviving fraction: 0.0317 ± 0.0015
[1]; 1000 nM
  surviving fraction: 0.0318 ± 0.0033
[2]; 0.5 nM
  surviving fraction: 1.06 ± 0.039
[2]; 1 nM
  surviving fraction: 1.02 ± 0.021
[2]; 5 nM
  surviving fraction: 1.02 ± 0.035
[2]; 10 nM
  surviving fraction: 0.962 ± 0.052
[2]; 50 nM
  surviving fraction: 0.243 ± 0.0049
[2]; 100 nM
  surviving fraction: 0.142 ± 0.015
[2]; 500 nM
  surviving fraction: 0.0995 ± 0.0051
[2]; 1000 nM
  surviving fraction: 0.09133 ± 0.00076

## CAL120 BREAST
[1]; 0.5 nM
  surviving fraction: 0.969 ± 0.032
[1]; 1 nM
  surviving fraction: 0.9515 ± 0.0038
[1]; 5 nM
  surviving fraction: 0.782 ± 0.015
[1]; 10 nM
  surviving fraction: 0.623 ± 0.026
[1]; 50 nM
  surviving fraction: 0.169 ± 0.017
[1]; 100 nM
  surviving fraction: 0.157 ± 0.0098
[1]; 500 nM
  surviving fraction: 0.154 ± 0.02
[1]; 1000 nM
  surviving fraction: 0.14 ± 0.0076
[2]; 0.5 nM
  surviving fraction: 0.961 ± 0.032
[2]; 1 nM
  surviving fraction: 0.96 ± 0.086
[2]; 5 nM
  surviving fraction: 0.721 ± 0.027
[2]; 10 nM
  surviving fraction: 0.31 ± 0.026
[2]; 50 nM
  surviving fraction: 0.328 ± 0.0043
[2]; 100 nM
  surviving fraction: 0.336 ± 0.0094
[2]; 500 nM
  surviving fraction: 0.333 ± 0.0045
[2]; 1000 nM
  surviving fraction: 0.335 ± 0.012
